Paper PMC6804243, “Small-Molecule Inhibition of UBE2T/FANCL-Mediated Ubiquitylation in the Fanconi Anemia Pathway” (ACS Chemical Biology, 2019)
Where two headings read alike, the source gives them in different places.

Columns and labels:
[1] = target: T1, UBE2T/FANCLRING (ubiquitylation of GST-FANCLRING) (Homo sapiens, UniProt Q9NW38); assay: biochemical; conditions: for LE: ligand efficiency = 1.4(–logIC50)/HAC; for inhibition at 20 µM: read-out: Primary screen % Inhibition (20 M)
T1 sequence (Q9NW38 275-375 limits assumed): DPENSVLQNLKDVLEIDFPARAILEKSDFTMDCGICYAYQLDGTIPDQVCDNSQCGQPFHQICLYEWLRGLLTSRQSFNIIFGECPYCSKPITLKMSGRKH
Source text: To identify small-molecule inhibitors of the FA pathway, we developed a high-throughput screen (HTS) compatible assay based on the FA ubiquitylation cascade (see Figure 1a, as well as Figure S1 in the Supporting Information). Given the complexity of the full FA ubiquitylation cascade, we constructed a simplified ubiquitylation reaction that would be robust for HTS purposes yet still provide many relevant protein species for small molecules to interact with. The recombinant protein assay developed used homogeneous time-resolved fluorescence (HTRF) and contained Cy5-labeled ubiquitin, the E1 enzyme UBE1, the E2 enzyme UBE2T, and the RING domain (residues 275–375) of the E3 FANCL (FANCLRING). FANCLRING was used as a surrogate substrate for ubiquitylation in the absence of the FA core and FANCD2/FANCI complexes.
Figure 1 Screening for inhibitors of the FA pathway. (a) Schematic of the HTRF ubiquitylation assay. Ubiquitylation of GST-tagged E3 (FANCLRING) by the E2 (UBE2T) places Cy5-labeled ubiquitin in close proximity to the anti-GST Tb cryptate. Excitation of the Tb cryptate donor results in FRET to the Cy5 acceptor. Simultaneous monitoring of the donor emission (620 nm) and acceptor emission (665 nm) allows for determination of the 665/620 ratio. (b) HTRF screen results showing average inhibition (n = 2) produced by compounds at 20 μM (in-house diversity library; 10 111 compounds) and 10 μM (Selleckchem epigenetic library; 119 compounds). Numbers given in parentheses represent the number of compounds per inhibition threshold.
Purified protein was concentrated using a Vivaspin-6 concentrator with a 10 kDa MW cut-off (Vivascience) and flash-frozen in small aliquots for storage at […]
Cy5 labelling of ubiquitin. To a 5 mg/mL solution of recombinant human ubiquitin (Boston Biochem) in 0.1 M NaHCO3 pH 8.3, was added a 4-fold molar excess of Cyanine5 NHS ester (Lumiprobe). The reaction was incubated at 23 °C for 4 hours in the dark. The protein was separated from unreacted dye by passage through a PD-10 desalting column (GE Healthcare) equilibrated with PBS. Purified protein was concentrated using a Vivaspin-6 concentrator with a 3 kDa MW cut-off (Vivascience) and flash-frozen in small aliquots for storage […]
Homogeneous Time-Resolved Fluorescence (HTRF) Assay. GST-FANCLRING (200 nM) was incubated with anti-GST Tb (CisBio, #61GSTTL) (2.5 ng final) at room temperature for 30 minutes in assay buffer (50 mM Tris-HCl pH 8.0, 1 mM TCEP, 5 mM MgCl2, 0.005% Tween-20). Meanwhile, 10 μL of UBE2T in assay buffer (or assay buffer alone for no enzyme controls) was incubated in a white 384-well plate (Corning) with 20 nL DMSO or compound in DMSO. After 30 minutes, the GST-RINGRING solution was added to an equal volume solution containing His-UBE1 (Boston Biochem) (16 nM), Cy5-ubiquitin (400 nM), ATP (0.8 mM) in assay buffer. 10 μL of this solution was immediately added to each well of the 384 -well plate containing UBE2T or buffer. F inal concentrations: His -UBE1 (4 nM), UBE2T (6 nM), GST -RINGRING (50 nM), Cy5-ubiquitin (100 nM), ATP (0.2 mM), compound (10 or 20 μM) in 0.1 %
(v/v) DMSO. After a 10 minute incubation at 23 °C, 5 µL of a 50 mM EDTA solution were added to each well to stop the reaction. Signal was measured at λEx 340 nm and λEm 665 nm and 620 nm using a PHERAstar FS plate reader
(BMG Labtech). A ratio was calculated as [λEm(665)/λEm(620)] × 104 for each well and this was used to determine the percent inhibition for test compounds.
Gel-based ubiquitylation assays. Assays were carried out in a total volume of 10 µL containing 20 nM His6-UBE1 (Boston Biochem), 50 nM UBE2T, 250 nM GST-E3 and 500 nM biotinylated ubiquitin (Boston Biochem) in buffer (50

[2] = test system: FANCD2 foci and γH2AX in U2OS cells; assay: High-throughput high content indirect immunofluorescence (FANCD2 foci, γH2AX); format: cell-based; conditions: CU2 500 μM, HU 2.5 mM 8 h, cisplatin 10 μM 8 h; for H2AX positive nuclei, Experiment 1 / H2AX positive nuclei, Experiment 2 / H2AX positive nuclei, Experiment 3: CU1 200 μM, raw data; for H2AX positive nuclei, Totals: sum of experiments 1-3, CU1 200 μM
Procedure: In response to DNA damage, mUb-FANCD2 accumulates at sites of DNA lesions to form foci, promote DNA-damage sensing, activate cell-cycle checkpoints, and promote DNA repair.[23] Therefore, we employed high-throughput high-content indirect immunofluorescence studies to examine the effect of CU1 and CU2 on mUb-FANCD2 focus formation. The experimental format used was similar to the immunoblot-based experiments, excepting that, following treatment with HU (2.5 mM for 8 h) or cisplatin (10 μM for 8 h), cells were fixed, permeabilized and stained with specific FANCD2 primary and fluorescent secondary antibodies. In addition to monitoring mUb-FANCD2 foci, γH2AX was evaluated as a marker of DNA damage induction, and cell nuclei were visualized by 4′,6-diamidino-2-phenylindole (DAPI) staining. […] These observations are in accord with the immunoblot-based experiments wherein reductions in mUb-FANCD2 were observed (Figure 3a).
Figure 4 Further cell-based assays with CU1 and CU2: (a, b) Representative immunofluorescence images of U2OS cells treated with HU (2.5 mM, 8 h) or cisplatin (10 μM, 8 h) in the presence or absence of CU1 (200 μM) or CU2 (500 μM). (c) Quantification of the number of FANCD2 foci in cells treated as in panels (a) and (b). Data accumulated over three independent experiments, each consisting of three technical replicas. (d) IncuCyte analysis of U2OS cells treated with or without carboplatin (15 μM) and CU2 (250 μM). Mean calculated from three wells, four images per well. (HU = DMSO + HU, cisplatin = DMSO + cisplatin). […]
buffer (1 hour at room temperature) followed by three washes with PBST. Cells were then counterstained with DAPI (25 µg/mL) and mounted using Vectashield […]
High-throughput high content indirect immunofluorescence. U2OS cells, seeded in a 96-well plate, were treated with compound for 1 hour followed by 2.5 mM HU or 10 µM cisplatin for 8 hours. Cells were washed 3 times with wash buffer (1xPBS, 0.1% Tween-20) before being fixed in 2% paraformaldehyde (w/v) for 20 minutes at 23 °C. The cells were then washed a further 3 times in wash buffer before being stored overnight at 4°C in the final wash. Next day, the cells were permeabilized using 1xPBS, 0.5% Triton X-100 for 15 minutes at 23 °C and then washed 3 times with wash buffer before blocking with 5% BSA in 1xPBS, 0.1% Tween-20 for 30 minutes at 23 °C. After washing 3 times with wash buffer, the cells were incubated for 1 hour at 23 °C in the presence of primary antibodies (1:50 FANCD2, Santa Cruz, mouse monoclonal and 1:250 γH2AX, Cell Signalling, rabbit) in 5% BSA in wash buffer. After incubation in the presence of primary antibodies, the cells were washed 3 times with wash buffer before being incubated with secondary antibodies in 5% BSA in wash buffer for 1 hour in the dark at 23 °C. The secondary antibodies used were goat anti-mouse AlexaFluor 488 and goat anti-rabbit AlexaFluor 594 (both from Molecular Probes, Invitrogen). The cells were then washed a further 3 times with wash buffer before being stained in the presence of 2 µg/ml DAPI (Sigma D9542) in wash buffer for 10 minutes in the dark at 23 °C. After DAPI staining, the cells were washed 3 more times with wash buffer and stored in the final wash until ready for imaging.
A spinning-disk Opera PhenixTM (Perkin Elmer) microscope equipped with a 40x water immersion objective was employed to acquire 10 confocal images for each well in a single optimized focal plane comprising three fluorescence channels: 405, 488 and 568 nm for DAPI, Alexa Fluor 488 and Alexa Fluor 594, respectively. Image analysis and evaluation was done using Harmony High-Content Imaging and Analysis software. DAPI staining (405 nm) was used to segment nuclei, which were further gated for the presence of γH2AX staining

U2OS cells = assay: IncuCyte cell proliferation assay; format: cell-based; conditions: 15 μM carboplatin in DMSO-treated cells
Procedure: Figure 4 Further cell-based assays with CU1 and CU2: (a, b) Representative immunofluorescence images of U2OS cells treated with HU (2.5 mM, 8 h) or cisplatin (10 μM, 8 h) in the presence or absence of CU1 (200 μM) or CU2 (500 μM). (c) Quantification of the number of FANCD2 foci in cells treated as in panels (a) and (b). Data accumulated over three independent experiments, each consisting of three technical replicas. (d) IncuCyte analysis of U2OS cells treated with or without carboplatin (15 μM) and CU2 (250 μM). Mean calculated from three wells, four images per well. (HU = DMSO + HU, cisplatin = DMSO + cisplatin).
Finally, to investigate if CU1 and CU2 could sensitize cells to a more clinically relevant chemotherapeutic agent, quantitative live cell analyses were performed using the IncuCyte platform. As the FA pathway is involved in the repair of ICLs, cells were treated with the ICL-inducing chemotherapeutic drug, carboplatin. For this experiment, U2OS cells were seeded at a relatively low (<10%) density and preincubated with CU1 or CU2 for 1 h. Carboplatin was then added to the cells and images were taken every 6 h for 8 days in order to monitor growth and proliferation of the cells.
Reaction mixtures were incubated for the indicated time at 37 °C and stopped by the addition of 2X reducing SDS -PAGE sample buffer, separated on NuPAGE Novex 4 –12% Bis/Tris gradient gels (Invitrogen) and visualized by Western blotting using the indicated antibodies (Table S3).
Cell culture. U2OS cells were cultured at 37 °C in a humidified atmosphere and 5% (v/v) CO2 in Dulbecco's Modified Eagle Medium (DMEM; Sigma-Aldrich) supplemented with 10% (v/v) fetal bovine serum (FBS), 100 units/ml of penicillin, […] of streptomycin and 292 μg/mL L-glutamine.
Cell extract preparation and immunoblotting. U2OS cells were lysed in buffer containing 50 mM Tris-HCl pH 7.5, 2% SDS, 10 mM NEM, cocktail protease inhibitor (Roche) and phosphatase inhibitor cocktail followed by sonication 100 µg of extracts were boiled for 5 mins at 95 °C in 5X loading buffer and loaded onto NuPAGE Novex 4–12% Bis/Tris gradient gels
(Invitrogen), or NuPAGE Novex 3-8% Tris/Acetate gradient gels (Invitrogen) for detection of mUb-FANCD2. After separation the gels were transferred to PVDF and the membranes were blocked with Tris-buffered saline containing 0.1% (v/v) Tween-20 (TBST) and 5% (v/v) bovine serum albumin (BSA) and incubated with the indicated primary and secondary antibodies. mUb-FANCD2 intensity was quantified using Image Studio (LI-COR).
IncuCyte cell proliferation assays. 2000 U2OS cells were seeded per well in 96-well plates and treated with compounds 24 hours afterwards. After 1 hour of compound treatment, 15 µM carboplatin (Sigma-Aldrich) was added and the cells were cultured in an incubator with an IncuCyte microscopy -platform (Essen BioScience). Phase -contrast images were acquired every 6 hours for 8 days until DMSO-carboplatin treated cells reached >80% confluence. Cell proliferation was monitored as the occupied area (% confluence) of cell images over time and calculated as percentage confluence over time. Cell confluency percentages were calculated using the integrated Cell Player software and results were analysed with Prism 6 (GraphPad Software).

[3] = library stock, 10-point dose-response, read-out: Primary screen IC50
[4] = printed beside the structures in Figure S3, read-out: IC50 (Figure S3)

| SMILES | IC50 [1, 3] [µM] | LE [1] | IC50 [1, 4] [µM] | inhibition at 20 µM [1] [%] | H2AX positive nuclei, Experiment 1 [2] | H2AX positive nuclei, Experiment 2 [2] | H2AX positive nuclei, Experiment 3 [2] | H2AX positive nuclei, Totals [2] | proliferation rate (U2OS cells) | confluency (U2OS cells; after 8 days) [%] |
| --- | --- | --- | --- | --- | --- | --- | --- | --- | --- | --- |
| COc1ccc(CNC(=O)c2ccc(-n3nccc3C)cc2)cc1C(=O)O [CU3] | 51.8 | 0.22 | 49.8 | 20.3 |  |  |  |  |  |  |
| Cc1cc(C(=O)O)cc(S(=O)(=O)Nc2ccccc2-n2cccn2)c1C [CU4] | 61 | 0.22 | 82.5 | 20.7 |  |  |  |  |  |  |
| O=C(c1ccc2n[nH]nc2c1)N1CCC(COc2ccccc2)CC1 [CU6] | 30.8 | 0.26 | 25.8 | 37 |  |  |  |  |  |  |
| Cc1nc2ccccc2n1CCNS(=O)(=O)c1ccc2c(c1)CC(=O)N2 [CU7] | 64.2 | 0.24 | 35.3 | 39.6 |  |  |  |  |  |  |
| Cn1ncc(C#N)c1NC(=O)Cc1coc2cc3c(cc12)CCC3 [CU8] | 33.7 | 0.24 | 73.2 | 34 |  |  |  |  |  |  |
| NC(=O)NO [HU, Hydroxyurea, reference compound] |  |  |  |  | 390 | 672 | 708 | 1770 |  |  |
| N.N.O=C([O-])C1(C(=O)[O-])CCC1.[Pt+2] [carboplatin, reference compound] |  |  |  |  |  |  |  |  | clear reduction in proliferation rate | < 100 |
| N.N.[Cl][Pt][Cl] [cisplatin, reference compound] |  |  |  |  | 915 | 1122 | 1056 | 3093 |  |  |
